Data on one molecule can be found in patent US5637619A, “Antitumor 2-aminocarbonyl-1, 2-bis(methylsulfonyl)-1-(substituted)hydrazines” (Yale University, priority 1995, dated 1997).

Values joined by “and” are separate entries in the source; they are usually repeats but may differ in a detail not shown here. Equal values may be shown once. “Also recorded” adds a separate entry of the source.

The test system of series [1] is B16F10 melanoma. Briefly: B16F10 melanoma, tumor growth delay in mice. The format is in vivo, C57BL/6 mice. The following applies: 100% DMSO. The method, then:
(§1) B16F10 melanoma cells were grown in vitro as monolayers in minimum essential medium with Hank's salts supplemented with 10% fetal bovine serum and 1% 200 mM L-glutamine solution. Solid tumors were produced in C57BL/6 female mice 12- to 14-weeks of age by the intradermal injection in the right flank of each mouse of 0.1 mL of a cell suspension containing 10^6 B16F10 cells/mL from freshly trypsinized cultures. After 10-12 days, animals bearing approximately 100 mm^3 tumors were treated ip with compound III or IV dissolved in 100% DMSO for 6 consecutive days, and tumor volumes were measured on alternate days until reaching 1000 mm^3.
Five mice per group were employed in experiments with the B16F10 melanoma, and 8 mice per group with the M5076 sarcoma, the M109 carcinoma and the LX-1 carcinoma. A minimum of two dose levels per compound were included in each evaluation and drug therapy was initiated 24 h after tumor implantation for the M5076 sarcoma and M109 carcinoma. In the LX-1 experiment, tumor bearing mice were selected and sorted into treatment and control groups on day 6 post-tumor implant such that all tumor weights ranged from 50-100 mg and median tumor weights per group were reasonably similar. Therapeutic results are presented in terms of: (a) increases in lifespan reflected by the relative median survival time (MST) of treated versus control groups (i.e., %T/C values), and by long-term survivors, and (b) primary tumor growth inhibition (i.e., T-C values) determined by calculating the relative median times for treated (T) and control untreated (C) mice to grow tumors of a 0.5 g size for the LX-1 carcinoma or a 1 g size for the murine neoplasms. Tumor weights were interchangeable with tumor size on the basis of 1 mm^3 =1 mg. […] The activity criterion for tumor inhibition was a delay in tumor growth consistent with one log10 cell kill (LCK). The absolute T-C value needed to attain this level of efficacy varied from experiment to experiment and depended upon the tumor volume doubling time of the control mice in each study. Treated mice dying prior to day 10 in the ip M109 experiment, or dying before their tumors achieved 0.5 g for the LX-1 carcinoma or 1 g in size for all other sc tumor models, were considered to have died from drug toxicity. Groups of mice with more than one death due to drug toxicity were not used in the evaluation of antitumor efficacy. Statistical evaluations of data were performed using Gehan's generalized Wilcoxan test (Gehan, Biometrika, 1965, 52, 203-233).
In addition, both compounds III and IV were evaluated in 100% DMSO against the B16F10 melanoma implanted intradermally (id) in mice (Table III). In an initial experiment, compound IV produced a T-C of 15.5 days at a daily dosage level of 20 mg/kg administered once daily for six consecutive days beginning on day 10 post-implant. In the same experiment, using the same treatment schedule, a growth delay of 11 days was obtained with compound III. […] Thus, the aminocarbonyl component in this class of agents influences the magnitude of the antitumor effects obtained against the B16F10 melanoma.

The test system of series [2] is L1210 leukemia. Briefly: L1210 leukemia survival time in mice (ip implanted). Type of series: in vivo, mice (CD2F1). The following applies: for %T/C (average survival time treated/control × 100): cures not included. The method, then:
(§2) Leukemia L1210 cells were obtained from the Frederick Cancer Research Facility, Division of Cancer Treatment Tumor Repository of the National Cancer Institute, and were maintained by serial passage in tissue culture. Every 8 weeks, tumor cells were injected intraperitoneally into five donor CD2 F1 mice 8- to 10- weeks of age and were allowed to grow for 7 days. The peritoneal fluid was withdrawn and the suspension was centrifuged for 5 min at 1600 g. The supernatant was decanted and 10^5 cells/mL were seeded into 10 mL of RPMI 1640 medium supplemented with 10% fetal bovine serum and 1% L-glutamine, and once again maintained in culture. To assay for antineoplastic activity, 0.1 mL of the cell suspension containing 10^5 L1210 leukemia cells was injected ip into each recipient mouse. Test compounds were administered over a wide range of dosage levels, beginning 24 h after tumor implantation, and continued once daily for 6 consecutive days. All drugs were administered ip as a solution in 100% dimethylsulfoxide (DMSO), in a volume not exceeding 0.025 mL. […] Mice were weighed during the course of the experiments, and the percentage change in body weight from onset to termination of therapy was used as an indication of drug toxicity. Determination of the sensitivity of neoplasms to these agents was based upon the prolongation of survival time afforded by the drug treatments.
(§3) ^a Administered ip once daily for six consecutive days, beginning 24 hours after tumor implantation, with 5-10 mice being used per group. ^b Average percent change in body weight from onset to termination of therapy. ^c % T/C=average survival time of treated/control mice×100; cures (>60-day survivors) are listed separately and are not included in this calculation.

The nature of series [3]: Body weight change / toxicity in L1210-bearing mice. Particulars: for Av. Wt. Change %: L1210-bearing mice. The format is in vivo, mice (CD2F1). The method, then: as §2, §3
The test system of series [4] is several more stringent distal site tumor models. In words: Comparison with clinically active alkylating agents in several distal site tumor models. The format is in vivo, mice. Particulars: qualitative summary. The method, then: as §1, with “mm^3. […]” for “mm^3.”
Five mice per group were employed in experiments with the B16F10 melanoma, and 8 mice per group with the M5076 sarcoma, the M109 carcinoma and the LX-1 carcinoma. […] Therapeutic results are presented in terms of: (a) increases in lifespan reflected by the relative median survival time (MST) of treated versus control groups (i.e., %T/C values), and by long-term survivors, and (b) primary tumor growth inhibition (i.e., T-C values) determined by calculating the relative median times for treated (T) and control untreated (C) mice to grow tumors of a 0.5 g size for the LX-1 carcinoma or a 1 g size for the murine neoplasms. […]

Consider `CS(=O)(=O)N(CCCl)N(C(=O)NCCCl)S(C)(=O)=O` [Compound III, 1,2-bis(methylsulfonyl)-1-(2-chloroethyl)-2-(2-chloroethyl)aminocarbonylhydrazine], for which the “T-C, growth delay” value in series [1] (experiment a, 20 mg/kg/injection, qd × 6 from day 10, ip, 20 mg/kg) is 11 days and 11.0 days; in series [1] (experiment b, 30 mg/kg/injection, qd × 6 from day 12, ip) it was 13.5 days. Moreover, the T-C in series [1] (experiment b, 20 mg/kg/injection, qd × 6 from day 12, ip) is 5.5 days. The “% 60 Day Survivors (cures)” value was determined as 100% in series [2] (10 mg/kg ip once daily × 6), 80% in series [2] (15 mg/kg ip once daily × 6) and 80% in series [2] (20 mg/kg ip once daily × 6). Besides, the “%T/C (average survival time treated/control × 100)” value in series [2] (15 mg/kg ip once daily × 6) amounted to 216%; in series [2] (20 mg/kg ip once daily × 6), 239%. In addition, the “antileukemic activity / therapeutic potential (in words)” value in series [2] (qualitative, L1210 leukemia in mice) was “One of the most active and potent compounds in the series; also recorded: much better therapeutic potential than the amino acid ester derivatives”. Further, the “Av. Wt. Change %” value is given as -4.7% in series [3] (10 mg/kg ip once daily × 6), -4.0% in series [3] (15 mg/kg ip once daily × 6) and -10.4% in series [3] (20 mg/kg ip once daily × 6). Also, the “loss in body weight” value in series [3] (20 mg/kg × 6) worked out at 10.4%. In addition, the “toxicity (in words)” value in series [3] (20 mg/kg × 6) is reported as “somewhat toxic”. The “antitumor activity versus clinical alkylating agents (in words)” value in series [4] is “better than or equal to some of the best clinically active alkylating agents used for comparison”.
